Drawing on patent US20220089598A1, “INHIBITORS OF HUMAN IMMUNODEFICIENCY VIRUS REPLICATION” (VIIV HEALTHCARE UK (No. 5) LIMITED, priority 2018, published 2022), this text covers EC50 and CC50 for 11 compounds.

Data set [1] concerns recombinant NL4-3 virus (Renilla luciferase) in MT-2 cells. Description: HIV cell culture assay (antiviral activity, luciferase readout). It is filed as cell-based. The settings on record: Renilla, NL43. How it is done:
HIV cell culture assay—MT-2 cells, 293T cells and the proviral DNA clone of NL4-3 virus were obtained from the NIH AIDS Research and Reference Reagent Program. MT-2 cells were propagated in RPMI 1640 media supplemented with 10% heat inactivated fetal bovine serum (FBS), 100 μg/ml penicillin G and up to 100 units/mL streptomycin. The 293T cells were propagated in DMEM media supplemented with 10% heat inactivated FBS, 100 μg/mL penicillin G and 100 μg/mL streptomycin. A recombinant NL4-3 proviral clone, in which a section of the nef gene was replaced with the Renilla luciferase gene, was used to make the reference virus used in these studies. The recombinant virus was prepared through transfection of the recombinant NL4-3 proviral clone into 293T cells using Transit-293 Transfection Reagent from Mirus Bio LLC (Madison, Wis.). Supernatent was harvested after 2-3 days and the amount of virus present was titered in MT-2 cells using luciferase enzyme activity as a marker by measuring luciferase enzyme activity. Luciferase was quantitated using the EnduRen Live Cell Substrate from Promega (Madison, Wis.). Antiviral activities of compounds toward the recombinant virus were quantified by measuring luciferase activity in MT-2 cells infected for 4-5 days with the recombinant virus in the presence of serial dilutions of the compound.
The 50% effective concentration (EC50) was calculated by using the exponential form of the median effect equation where (Fa)=1/[1+(ED50/drug conc.)m] (Johnson V A, Byington R T. Infectivity Assay. In Techniques in HIV Research. ed. Aldovini A, Walker B D. 71-76. New York: Stockton Press. 1990).

A short description of data set [2]: Compound cytotoxicity, XTT-based colorimetric assay. It is filed as cell-based. The settings on record: human; uninfected MT2 cells, day 4, XTT assay. Here is the method:
Compound cytotoxicity and the corresponding CC50 values were determined using the same protocol as described in the antiviral assay except that uninfected cells were used. Cytotoxicity was assessed on day 4 in uninfected MT2 cells by using a XTT (2,3-bis[2-Methoxy-4-nitro-5-sulfophenyl]-2H-tetrazolium-5-carboxyanilide inner salt)-based colorimetric assay (Sigma-Aldrich, St Louis, Mo.).
A general note: Tetrazolium dyes change colour on reduction, which living cells bring about.

Broadly, the EC50 is the midpoint of the concentration-response curve. What is called CC50 is the concentration giving 50% cytotoxicity. Take `CS(=O)(=O)Nc1nn(CC(F)F)c2c(-n3c([C@H](Cc4cc(F)cc(F)c4)NC(=O)Cn4ccc(C5CC5)n4)nc4nc(-c5ccccc5F)ccc4c3=O)ccc(Cl)c12` (atropisomer, axis not shown; (P)) [Example 33, (S)—N-(1-((3P)-3-(4-chloro-1-(2,2-difluoroethyl)-3-(methylsulfonamido)-1H-indazol-7-yl)-7-(2-fluorophenyl)-4-oxo-3,4-dihydropyrido[2,3-d]pyrimidin-2-yl)-2-(3,5-difluorophenyl)ethyl)-2-(3-cyclopropyl-1H-pyrazol-1-yl)acetamide]: the EC50 in data set [1] stood at 0.15 nM. For the same compound, the CC50 at 4 day in data set [2] was > 500 nM.

On to `Cn1nc(NS(C)(=O)=O)c2c(Cl)ccc(-n3c([C@H](Cc4cc(F)cc(F)c4)NC(=O)Cn4nc(C(F)F)c5c4C(F)(F)[C@@H]4C[C@H]54)nc4nc(-c5ccccc5F)ccc4c3=O)c21` (atropisomer, axis not shown; (P)) [Example 1, N—((S)-1-((3P)-3-(4-chloro-1-methyl-3-(methylsulfonamido)-1H-indazol-7-yl)-7-(2-fluorophenyl)-4-oxo-3,4-dihydropyrido[2,3-d]pyrimidin-2-yl)-2-(3,5-difluorophenyl)ethyl)-2-((3bS,4aR)-3-(difluoromethyl)-5,5-difluoro-3b,4,4a,5-tetrahydro-1H-cyclopropa[3,4]cyclopenta[1,2-c]pyrazol-1-yl)acetamide], for which the EC50 in data set [1] was found to be 0.06 nM. Moreover, the CC50 at 4 day in data set [2] is > 1000 nM.

Take `Cn1nc(NS(C)(=O)=O)c2c(Cl)ccc(-n3c([C@H](Cc4cc(F)cc(F)c4)NC(=O)Cn4nc(C(F)F)c5c4C(F)(F)[C@@H]4C[C@H]54)nc4nc(-c5cc(F)c(F)c(F)c5)ccc4c3=O)c21` (atropisomer, axis not shown; (P)) [Example 12, N—((S)-1-((3P)-3-(4-chloro-1-methyl-3-(methylsulfonamido)-1H-indazol-7-yl)-4-oxo-7-(3,4,5-trifluorophenyl)-3,4-dihydropyrido[2,3-d]pyrimidin-2-yl)-2-(3,5-difluorophenyl)ethyl)-2-((3bS,4aR)-3-(difluoromethyl)-5,5-difluoro-3b,4,4a,5-tetrahydro-1H-cyclopropa[3,4]cyclopenta[1,2-c]pyrazol-1-yl)acetamide]: the EC50 in data set [1] stood at 0.21 nM. The CC50 at 4 day in data set [2] was > 100 nM.

In the case of `Cn1nc(NS(C)(=O)=O)c2c(Cl)ccc(-n3c([C@H](Cc4cc(F)cc(F)c4)NC(=O)Cn4nc(C(F)F)c5c4C(F)(F)[C@@H]4C[C@H]54)nc4nc(-c5ccc(F)cc5CO)ccc4c3=O)c21` (atropisomer, axis not shown; (P)) [Example 16, N—((S)-1-((3P)-3-(4-chloro-1-methyl-3-(methylsulfonamido)-1H-indazol-7-yl)-7-(4-fluoro-2-(hydroxymethyl)phenyl)-4-oxo-3,4-dihydropyrido[2,3-d]pyrimidin-2-yl)-2-(3,5-difluorophenyl)ethyl)-2-((3bS,4aR)-3-(difluoromethyl)-5,5-difluoro-3b,4,4a,5-tetrahydro-1H-cyclopropa[3,4]cyclopenta[1,2-c]pyrazol-1-yl)acetamide], the EC50 in data set [1] stood at 0.056 nM. The CC50 at 4 day in data set [2] is > 500 nM.

Consider `Cn1nc(NS(C)(=O)=O)c2c(Cl)ccc(-n3c([C@H](Cc4cc(F)cc(F)c4)NC(=O)Cn4nc(C(F)F)c5c4C(F)(F)[C@@H]4C[C@H]54)nc4nc(-c5cccc(F)c5F)ccc4c3=O)c21` (atropisomer, axis not shown; (P)) [Example 4, N—((S)-1-((3P)-3-(4-chloro-1-methyl-3-(methylsulfonamido)-1H-indazol-7-yl)-7-(2,3-difluorophenyl)-4-oxo-3,4-dihydropyrido[2,3-d]pyrimidin-2-yl)-2-(3,5-difluorophenyl)ethyl)-2-((3bS,4aR)-3-(difluoromethyl)-5,5-difluoro-3b,4,4a,5-tetrahydro-1H-cyclopropa[3,4]cyclopenta[1,2-c]pyrazol-1-yl)acetamide], for which the EC50 in data set [1] was 0.092 nM. The CC50 at 4 day in data set [2] is > 100 nM.

In the case of `Cn1nc(NS(C)(=O)=O)c2c(Cl)ccc(-n3c([C@H](Cc4cc(F)cc(F)c4)NC(=O)Cn4nc(C(F)(F)F)c5c4C(F)(F)[C@@H]4C[C@H]54)nc4nc(-c5ccc(F)cc5F)ccc4c3=O)c21` (atropisomer, axis not shown; (P)) [Example 24, N—((S)-1-((3P)-3-(4-chloro-1-methyl-3-(methylsulfonamido)-1H-indazol-7-yl)-7-(2,4-difluorophenyl)-4-oxo-3,4-dihydropyrido[2,3-d]pyrimidin-2-yl)-2-(3,5-difluorophenyl)ethyl)-2-((3bS,4aR)-5,5-difluoro-3-(trifluoromethyl)-3b,4,4a,5-tetrahydro-1H-cyclopropa[3,4]cyclopenta[1,2-c]pyrazol-1-yl)acetamide], the EC50 in data set [1] amounted to 0.067 nM. Besides, the CC50 at 4 day in data set [2] was > 500 nM.

Turning to `Cn1nc(NS(C)(=O)=O)c2c(Cl)ccc(-n3c([C@H](Cc4cc(F)cc(F)c4)NC(=O)Cn4nc(C(F)F)c5c4C(F)(F)[C@@H]4C[C@H]54)nc4nc(-c5c(F)cccc5F)ccc4c3=O)c21` (atropisomer, axis not shown; (P)) [Example 3, N—((S)-1-((3P)-3-(4-chloro-1-methyl-3-(methylsulfonamido)-1H-indazol-7-yl)-7-(2,6-difluorophenyl)-4-oxo-3,4-dihydropyrido[2,3-d]pyrimidin-2-yl)-2-(3,5-difluorophenyl)ethyl)-2-((3bS,4aR)-3-(difluoromethyl)-5,5-difluoro-3b,4,4a,5-tetrahydro-1H-cyclopropa[3,4]cyclopenta[1,2-c]pyrazol-1-yl)acetamide], the EC50 in data set [1] stood at 0.11 nM. The CC50 at 4 day in data set [2] was > 100 nM.

Regarding `CS(=O)(=O)Nc1nn(CC(F)(F)F)c2c(-n3c([C@H](Cc4cc(F)cc(F)c4)NC(=O)Cn4nc(C(F)F)c5c4C(F)(F)[C@@H]4C[C@H]54)nc4nc(-c5ccccc5F)ccc4c3=O)ccc(Cl)c12` (atropisomer, axis not shown; (P)) [Example 27, N—((S)-1-((3P)-3-(4-chloro-3-(methylsulfonamido)-1-(2,2,2-trifluoroethyl)-1H-indazol-7-yl)-7-(2-fluorophenyl)-4-oxo-3,4-dihydropyrido[2,3-d]pyrimidin-2-yl)-2-(3,5-difluorophenyl)ethyl)-2-((3bS,4aR)-3-(difluoromethyl)-5,5-difluoro-3b,4,4a,5-tetrahydro-1H-cyclopropa[3,4]cyclopenta[1,2-c]pyrazol-1-yl)acetamide], the EC50 in data set [1] is 0.088 nM. In data set [2], the CC50 at 4 day is > 500 nM.

Take `Cn1nc(NS(C)(=O)=O)c2c(Cl)ccc(-n3c([C@H](Cc4cc(F)cc(F)c4)NC(=O)Cn4nc(C(F)F)c5c4C(F)(F)[C@@H]4C[C@H]54)nc4nc(-c5ccc(F)c(F)c5F)ccc4c3=O)c21` (atropisomer, axis not shown; (P)) [Example 15, N—((S)-1-((3P)-3-(4-chloro-1-methyl-3-(methylsulfonamido)-1H-indazol-7-yl)-4-oxo-7-(2,3,4-trifluorophenyl)-3,4-dihydropyrido[2,3-d]pyrimidin-2-yl)-2-(3,5-difluorophenyl)ethyl)-2-((3bS,4aR)-3-(difluoromethyl)-5,5-difluoro-3b,4,4a,5-tetrahydro-1H-cyclopropa[3,4]cyclopenta[1,2-c]pyrazol-1-yl)acetamide]: the EC50 in data set [1] was 0.035 nM. The CC50 at 4 day in data set [2] was > 100 nM.

As to `O=C(Cn1ccc(C2CC2)n1)N[C@@H](Cc1cc(F)cc(F)c1)c1nc2nc(-c3ccccc3F)ccc2c(=O)n1-c1ccc(Cl)c2c(NS(=O)(=O)C3CC3)nn(CC(F)F)c12` (atropisomer, axis not shown; (P)) [Example 35, (S)—N-(1-((3P)-3-(4-chloro-3-(cyclopropanesulfonamido)-1-(2,2-difluoroethyl)-1H-indazol-7-yl)-7-(2-fluorophenyl)-4-oxo-3,4-dihydropyrido[2,3-d]pyrimidin-2-yl)-2-(3,5-difluorophenyl)ethyl)-2-(3-cyclopropyl-1H-pyrazol-1-yl)acetamide], the 50% effective concentration (EC50) in data set [1] turned out to be 0.2 nM. In addition, the cytotoxic concentration (CC50) at 4 day in data set [2] was > 500 nM.

For the compound `COc1nc2nc([C@H](Cc3cc(F)cc(F)c3)NC(=O)Cn3nc(C(F)(F)F)c4c3C(F)(F)[C@@H]3C[C@H]43)n(-c3ccc(Cl)c4c(NS(C)(=O)=O)nn(C)c34)c(=O)c2cc1-c1ccccc1F` (atropisomer, axis not shown; (P)) [Example 31, N—((S)-1-((3P)-3-(4-chloro-1-methyl-3-(methylsulfonamido)-1H-indazol-7-yl)-6-(2-fluorophenyl)-7-methoxy-4-oxo-3,4-dihydropyrido[2,3-d]pyrimidin-2-yl)-2-(3,5-difluorophenyl)ethyl)-2-((3bS,4aR)-5,5-difluoro-3-(trifluoromethyl)-3b,4,4a,5-tetrahydro-1H-cyclopropa[3,4]cyclopenta[1,2-c]pyrazol-1-yl)acetamide], in data set [1], the EC50 stood at 0.16 nM. For the same compound, the CC50 at 4 day in data set [2] is > 500 nM.
